Assay results from US20040235722A1, “Epf receptor assays, compounds and therapeutic compositions” (priority 2001, published 2004).
Values joined by “and” are separate entries in the source; they are usually repeats but may differ in a detail not shown here. Equal entries are not always repeated. Where two headings read alike, the source gives them in different places. One block for each molecule: values may come before it. Where no end group is shown, it is not given here.

Experiments:
hDRR4 [1] = target: T1, hDRR4 (Homo sapiens, UniProt Q96LB2); assay: Stimulation of hDRR4 with angiotensin II and III (re-test of WO 99/32519); details: claimed in WO 99/32519; re-examined by present inventors
hDRR4 [2] = target: T1, hDRR4; assay: FLIPR calcium assay, HEK293 cells transiently co-transfected with hDRR4 and Gα16; type: cell-based; design: The full length reading frame was inserted into the mammalian expression vector pcDNA3; expressed in transfected cells; host or cells: HEK293
Protocol: (§1) The hDRR4 expression plasmid or the hDRR7 expression plasmid was transiently co-transfected with a Gα16-pcDNA3 contruct using the FuGENE 6 reagent (Roche Molecular Biochemicals, Mannheim, Germany) into HEK293 cells. The cells were loaded with Fluo-4 (Molecular Probes, Eugene, Oreg., U.S.A.) according to the recommendations of the supplier. Subsequently the cells were assayed in the FLIPR instrument (Molecular Devices, Sunnyvale, Calif., U.S.A.) for Ca^2+ transients.
(§2) Activation of orphan GPCR hDRR4 (SEQ ID NO:2) by the hDRR binding fragment of EPF (SEQ ID NO:8) at a test concentration of 150 nM was measured in Hek293 cells co-transfected with Gα16-pcDNA. Relative fluorescence units (RFU) were determined by loading the cells with Fluo-4 (Molecular Probes, Eugene, Oreg., U.S.A.).
as §1, with “construct” for “contruct”, “Fluo4” for “Fluo-4”
(§3) The purified peptides or dried tissue fractions were dissolved in calcium buffer and loaded onto regular multi-well 96 plates. Subsequently the cells were assayed in the FLIPR instrument (Molecular Devices, Sunnyvale, Calif., U.S.A.) for Ca^2+ transients. For the EPF-related peptides the following pEC50 values were determined;

hDRR7 receptor = target: T2, hDRR7 receptor (Homo sapiens, UniProt Q96LB1); assay: FLIPR calcium assay, HEK293 cells transiently co-transfected with hDRR7 and Gα16; type: cell-based; details: for EC50: MrgX2 taken as hDRR7, FLIPR Ca2+ transients (FIG. 10), read-out: MrgX2 (pEC50) (converted)
T2 construct: expressed in transfected cells; host or cells: HEK293
T2 sequence (Q96LB1 1-330): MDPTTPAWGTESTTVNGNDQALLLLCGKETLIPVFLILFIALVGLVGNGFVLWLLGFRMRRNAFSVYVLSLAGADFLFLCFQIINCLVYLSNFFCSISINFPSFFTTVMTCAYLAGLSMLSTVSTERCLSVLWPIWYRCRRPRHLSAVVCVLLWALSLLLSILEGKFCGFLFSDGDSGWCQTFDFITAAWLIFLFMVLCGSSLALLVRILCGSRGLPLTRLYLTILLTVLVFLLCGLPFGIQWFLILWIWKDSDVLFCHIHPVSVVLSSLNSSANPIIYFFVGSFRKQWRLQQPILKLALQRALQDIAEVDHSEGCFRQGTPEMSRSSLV
Protocol: as §1
as §1, with “The” for “The hDRR4 expression plasmid or the”
(§4) Activation of orphan GPCR hDRR7 (SEQ ID NO:12) by the HDRR binding fragment of EPF (SEQ ID NO: 8) at a test concentration of 150 nM after transient co-transfection with Gα16-pcDNA into HEK293 cells. Relative fluorescence units (RFU) were determined by loading the cells with Fluo-4 (Molecular Probes, Eugene, Oreg., U.S.A.).
as §1, with “construct” for “contruct”, “Fluo4” for “Fluo-4”
as §3

[3] = test system: Hek 293 cells only transfected with the Gα16-pcDNA expression vector; assay: FLIPR calcium assay, control cells without receptor; type: cell-based, human; details: test concentration 150 nM, no hDRR receptor (FIG. 3, FIG. 4)
Protocol: as §1, §2, §4

hDRR4 [4] = target: T1, hDRR4; assay: [3H]Adenine binding to membranes of hDRR4 transfected cells; details: tritiated adenine
Protocol: (§5) The membranes were prepared as total particulate fractions. The cell lines were cultured to 90% confluency on 145 mm petri dishes and treated with 5 mM sodium butyrate, 24 hours before collection. The culturing medium was removed and the cells were washed twice with ice-cold phosphate-buffered saline (PBS w/o Ca^2+ and Mg^2+), scraped from the plates in 50 mM Tris-HCl buffer, pH 7.4, and collected by centrifugation (10 minutes at 16,000 RPM at 4° C.). The cell pellet was re-suspended in hypotonic 5 mM Tris-HCl buffer, pH 7.4, and homogenized with an Ultra Turrax homogenizer. The homogenate was centrifuged at 18,000 RPM for 20 minutes at 4° C. The final pellet was re-suspended in 50 mM Tris-HCl buffer, pH 7.4 and stored in aliquots at −70° C. A protein determination was performed using the Bradford protein assay (Biorad) using bovine serum albumin (BSA) as standard.
(§6) [^3H]Adenine binding experiments were performed to characterize transiently transfected cell lines. Membranes were thawed on ice and diluted in 50 mM HEPES buffer, pH 7.4 supplemented with 10 mM MgCl2 and 1 mM EGTA. […] Samples were counted in a β-scintillation counter after at least 6 hours to permit the glass fiber filters to become uniformly translucent. […]
(§7) Specific binding was calculated as difference between counts in the presence and absence of 1 μM unlabeled adenine.

[5] = target: T3, GPCR RC56.3.1 (adenine receptor) (Rattus norvegicus, UniProt Q7TN49); assay: [3H]Adenine binding to RC56.1.3 transfected cells; details: tritiated adenine
T3 construct: expressed in transfected cells; host or cells: COS cells (membranes)
T3 sequence (Q7TN49 1-304): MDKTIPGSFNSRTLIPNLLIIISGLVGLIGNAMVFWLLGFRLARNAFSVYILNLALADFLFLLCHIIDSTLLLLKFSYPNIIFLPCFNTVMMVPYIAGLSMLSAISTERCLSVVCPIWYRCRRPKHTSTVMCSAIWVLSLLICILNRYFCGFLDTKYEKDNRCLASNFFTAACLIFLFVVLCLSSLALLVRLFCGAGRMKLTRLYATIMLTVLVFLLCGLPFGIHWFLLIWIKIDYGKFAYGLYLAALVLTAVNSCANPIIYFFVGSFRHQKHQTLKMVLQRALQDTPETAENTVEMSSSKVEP
Protocol: as §5, §6, §7

[6] = target: T4, human Dorsal Root Receptor 4 (hDRR4) (human, UniProt Q96LB2 1-322); assay: cell-based or functional assay
[7] = target: T5, human Dorsal Root Receptor 7 (hDRR7) (human, UniProt Q96LB1 1-330); assay: cell-based or functional assay
T5 sequence: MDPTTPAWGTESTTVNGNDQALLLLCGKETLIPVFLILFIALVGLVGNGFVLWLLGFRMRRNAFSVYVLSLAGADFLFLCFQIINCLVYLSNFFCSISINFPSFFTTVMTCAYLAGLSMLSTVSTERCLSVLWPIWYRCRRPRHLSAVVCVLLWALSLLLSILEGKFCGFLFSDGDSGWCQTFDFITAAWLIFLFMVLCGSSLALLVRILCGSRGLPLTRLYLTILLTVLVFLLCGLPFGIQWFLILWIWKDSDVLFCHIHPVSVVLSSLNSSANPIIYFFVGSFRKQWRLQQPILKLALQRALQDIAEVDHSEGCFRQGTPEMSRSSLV

[8] = target: T4, human Dorsal Root Receptor 4 (hDRR4); assay: cell-based or functional assay; remark: listed apart in the source
[9] = target: T5, human Dorsal Root Receptor 7 (hDRR7); assay: cell-based or functional assay; remark: listed apart in the source
[10] = MrgX1 = hDRR4, FLIPR Ca2+ transients (FIG. 9), read-out: MrgX1 (pEC50) (converted)

T4 sequence (Q96LB2 whole entry): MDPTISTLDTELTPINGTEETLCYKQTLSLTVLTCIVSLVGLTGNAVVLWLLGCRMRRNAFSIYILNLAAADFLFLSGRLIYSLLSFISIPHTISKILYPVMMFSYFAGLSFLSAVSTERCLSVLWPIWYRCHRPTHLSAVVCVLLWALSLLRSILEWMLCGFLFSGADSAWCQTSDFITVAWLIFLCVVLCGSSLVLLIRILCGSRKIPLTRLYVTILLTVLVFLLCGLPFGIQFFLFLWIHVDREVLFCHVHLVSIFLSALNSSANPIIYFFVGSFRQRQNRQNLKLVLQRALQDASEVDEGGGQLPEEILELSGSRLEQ
T1 sequence (Q96LB2 whole entry): as above

Stimulation of hDRR4 by angiotensin (angiotensin receptor characterization) (hDRR4 [1]): could not be confirmed
Molecule: angiotensin II (DRVYIHPF; Angiotensin-2; UniProt P01019 25-32, looked up)

Stimulation of hDRR4 by angiotensin (angiotensin receptor characterization) (hDRR4 [1]): could not be confirmed
Molecule: angiotensin III

Specific response on hDRR4 in FLIPR-based cellular assay (hDRR4 [2]; HEK293 with and without co-transfection of chimeric G proteins or Gα16): no specific response
Specific adenine binding to hDRR4 (hDRR4 [4]): no specific adenine binding
Specific adenine binding to RC56.1.3 transfected cells [5]: clear specific adenine binding
Molecule: Nc1ncnc2nc[nH]c12 [adenine]

EC50-value [8]: 10.6 nM and 6 to 12 nM
EC50-value, FLIPR calcium assay [8]: 12 nM
EC50-value, FLIPR calcium assay [9]: 354 nM
Molecule: AFRKFLPLFDRVLVERSA [hDRR binding fragment of EPF (SEQ ID NO:8)]

Continued, molecule first:

Molecule: LGQAFRKFLPLFDRVLVE [EPF 1-18, LGQAFRKFLPLFDRVLVE]
EC50 (hDRR4 [2]; [10]): 99.3 nM
EC50 (hDRR7 receptor): 820 nM

Molecule: AFRKFLPLFDRVLVERSA [SEQ ID NO:8, AFRKFLPLFDRVLVERSA]
EC50 (hDRR4 [2]; FLIPR calcium assay, different test concentrations (FIG. 7), read-out: EC50-value on hDRR4 receptor): 10.6 to 12 nM and 12 nM
Activation of hDRR4 (relative fluorescence units) (hDRR4 [2]; test concentration 150 nM, Fluo-4 (FIG. 3)): Activation
Response of cells transfected with Gα16 only [3]: did not response
Activation of hDRR7 (relative fluorescence units) (hDRR7 receptor; test concentration 150 nM, Fluo-4 (FIG. 4)): Activation

Molecule: LGQAFRKFLPLFDRVL [EPF 1-16, LGQAFRKFLPLFDRVL]
EC50 (hDRR4 [2]; [10]): 15.1 nM
EC50 (hDRR7 receptor): 873 nM

Molecule: LGQAFRKFLPLFDRVLVE [EPF 1-18 (LGQAFRKFLPLFDRVLVE, SEQ ID NO: 19)]
pEC50, FLIPR Ca2+ transients [6]: 7 pEC50
pEC50, FLIPR Ca2+ transients [7]: 6.09 pEC50

Molecule: LGQAFRKFLPLFDRVL [EPF 1-16 (LGQAFRKFLPLFDRVL, SEQ ID NO: 21)]
pEC50, FLIPR Ca2+ transients [6]: 7.82 pEC50
pEC50, FLIPR Ca2+ transients [7]: 6.06 pEC50
